Source: article PMC4574636 (Biochemical pharmacology, 2015)
Like-named read-outs stand apart in the source and are kept apart here.

Assays:
[1] = molecular target: T1, AOX1 (Homo sapiens, UniProt Q06278); conditions: human liver cytosol
T1 sequence (Q06278 1-1338): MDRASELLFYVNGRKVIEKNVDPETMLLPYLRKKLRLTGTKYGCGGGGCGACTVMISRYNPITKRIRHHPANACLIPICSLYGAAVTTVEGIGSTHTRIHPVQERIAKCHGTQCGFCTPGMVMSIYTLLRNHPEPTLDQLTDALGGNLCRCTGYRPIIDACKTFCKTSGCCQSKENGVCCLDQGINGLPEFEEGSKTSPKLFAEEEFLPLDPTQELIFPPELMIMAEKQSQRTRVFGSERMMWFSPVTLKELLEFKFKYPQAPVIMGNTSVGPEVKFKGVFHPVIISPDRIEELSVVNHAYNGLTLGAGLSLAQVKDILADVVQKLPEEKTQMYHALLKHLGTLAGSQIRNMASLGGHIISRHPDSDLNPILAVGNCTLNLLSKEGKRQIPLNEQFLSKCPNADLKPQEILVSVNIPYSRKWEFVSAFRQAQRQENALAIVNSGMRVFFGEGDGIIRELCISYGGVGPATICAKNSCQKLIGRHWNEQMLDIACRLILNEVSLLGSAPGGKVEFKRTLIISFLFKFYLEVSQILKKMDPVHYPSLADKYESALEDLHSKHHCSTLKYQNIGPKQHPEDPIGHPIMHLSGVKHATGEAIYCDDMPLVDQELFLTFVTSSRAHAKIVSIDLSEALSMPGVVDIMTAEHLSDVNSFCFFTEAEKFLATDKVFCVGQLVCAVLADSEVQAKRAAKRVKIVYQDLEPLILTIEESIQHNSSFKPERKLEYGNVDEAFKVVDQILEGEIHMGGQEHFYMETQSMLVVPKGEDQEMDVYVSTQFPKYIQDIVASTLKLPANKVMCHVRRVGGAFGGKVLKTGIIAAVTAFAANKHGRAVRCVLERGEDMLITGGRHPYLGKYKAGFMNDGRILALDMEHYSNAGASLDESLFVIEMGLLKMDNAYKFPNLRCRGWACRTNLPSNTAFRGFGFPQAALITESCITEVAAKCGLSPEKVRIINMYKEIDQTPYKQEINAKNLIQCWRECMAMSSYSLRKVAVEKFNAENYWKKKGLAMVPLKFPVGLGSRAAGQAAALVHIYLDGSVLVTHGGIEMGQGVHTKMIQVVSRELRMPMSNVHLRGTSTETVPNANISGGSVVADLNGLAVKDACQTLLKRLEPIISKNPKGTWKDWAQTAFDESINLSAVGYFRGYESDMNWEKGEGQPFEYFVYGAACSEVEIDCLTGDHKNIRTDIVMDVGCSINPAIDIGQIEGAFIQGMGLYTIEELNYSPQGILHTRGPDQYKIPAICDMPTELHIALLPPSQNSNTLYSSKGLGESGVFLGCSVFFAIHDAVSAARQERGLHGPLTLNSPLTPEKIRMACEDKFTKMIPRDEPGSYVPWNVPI

[2] = system: aldehyde oxidase (AOX); conditions: rat liver cytosol, mean ± SEM, estimate, saturation incomplete
[3] = molecular target: T2, AOX1 (Macaca mulatta, UniProt I0FRB2); conditions: monkey liver cytosol; calculated from Vmax and AOX1 level (figure 1A)
T2 sequence (I0FRB2 1-1338): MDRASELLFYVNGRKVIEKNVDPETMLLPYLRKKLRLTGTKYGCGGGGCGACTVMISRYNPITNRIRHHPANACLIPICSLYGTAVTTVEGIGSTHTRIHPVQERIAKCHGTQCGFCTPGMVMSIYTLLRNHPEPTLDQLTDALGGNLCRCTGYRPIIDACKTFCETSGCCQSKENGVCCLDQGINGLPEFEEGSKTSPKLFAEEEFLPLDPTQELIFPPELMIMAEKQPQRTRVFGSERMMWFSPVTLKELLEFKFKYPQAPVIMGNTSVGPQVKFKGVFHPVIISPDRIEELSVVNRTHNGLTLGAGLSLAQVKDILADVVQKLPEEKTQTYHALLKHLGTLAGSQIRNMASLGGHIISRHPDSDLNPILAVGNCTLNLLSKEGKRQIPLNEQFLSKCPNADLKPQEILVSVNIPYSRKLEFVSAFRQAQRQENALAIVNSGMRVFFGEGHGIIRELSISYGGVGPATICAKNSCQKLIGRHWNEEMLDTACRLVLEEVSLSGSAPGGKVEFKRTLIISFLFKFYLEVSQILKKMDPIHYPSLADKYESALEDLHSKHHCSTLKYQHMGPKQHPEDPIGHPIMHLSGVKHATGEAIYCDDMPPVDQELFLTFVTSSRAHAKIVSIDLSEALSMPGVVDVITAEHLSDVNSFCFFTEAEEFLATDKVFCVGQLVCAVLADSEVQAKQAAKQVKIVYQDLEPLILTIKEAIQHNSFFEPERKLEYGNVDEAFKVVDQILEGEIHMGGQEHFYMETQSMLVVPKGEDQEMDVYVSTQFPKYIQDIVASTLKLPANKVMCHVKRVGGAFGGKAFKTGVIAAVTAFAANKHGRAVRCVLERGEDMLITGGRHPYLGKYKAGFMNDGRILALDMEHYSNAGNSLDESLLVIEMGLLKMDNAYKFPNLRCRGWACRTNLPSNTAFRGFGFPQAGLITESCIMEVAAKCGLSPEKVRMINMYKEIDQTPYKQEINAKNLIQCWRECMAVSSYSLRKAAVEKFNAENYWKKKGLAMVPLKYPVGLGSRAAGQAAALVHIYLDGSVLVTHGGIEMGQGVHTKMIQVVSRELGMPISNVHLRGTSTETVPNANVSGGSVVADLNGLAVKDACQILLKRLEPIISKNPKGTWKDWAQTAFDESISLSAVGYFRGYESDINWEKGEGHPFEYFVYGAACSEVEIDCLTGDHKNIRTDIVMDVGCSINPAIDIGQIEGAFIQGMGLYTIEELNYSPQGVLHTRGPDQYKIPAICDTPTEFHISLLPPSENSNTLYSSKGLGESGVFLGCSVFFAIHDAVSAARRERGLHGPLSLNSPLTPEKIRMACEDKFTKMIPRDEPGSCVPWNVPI

CN(Cc1cnc2nc(N)nc(N)c2n1)c1ccc(C(=O)N[C@@H](CCC(=O)O)C(=O)O)cc1 [Methotrexate, 4-amino-N^1^0-methylpteroglutamic acid]
kcat (Vmax/[AOX1]) ([1]; calculated from Vmax and AOX1 level (figure 1A)): 0.04 s⁻¹
In vitro CLint AOX1 ([1]; from specific activity and Km): 0.9 min^− 1mM^−1
Vmax [2]: 50 ± 3 pmol/min/mg
Vmax ([2]; listed as methotrexate): 40 to 70 pmol/min/mg
kcat (Vmax/[AOX1]) [3]: 0.583 s⁻¹
